Test results reported in patent publication US7091185B2, “Periodic antimicrobial peptides” (Dow Global Technologies Inc., priority 2003, dated 2006).
Read-outs that look alike come from different tables or passages of the source. Where no end group is shown, it is not given here.

Tests used:
[1] = Red blood cell toxicity; format: cell-based; details: red blood cells (RBC); RBCs; concentration required for 50% toxicity; read-out: TX50
[2] = system: Red blood cells (RBC); assay: Red blood cell toxicity; format: cell-based
[3] = system: HeLa cell line; assay: HeLa MTS cellular reduction toxicity assay; format: cell-based; details: for TX50: 24 h, MTS
Procedure, shortened: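 TX50, the concentration giving 50% toxicity, obtained by sigmoidal fitting of relative toxicity versus peptide-free cells. Readout: MTS reduction with PMS, 1 h, A490. Peptides applied in 2-fold serial dilutions to 48 h HeLa monolayers for 24 h at 37 °C.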

[4] = system: S. aureus (methicillin resistant) ATCC 33591
[5] = system: E. coli ATCC 2592; details: ATCC 2592
[6] = system: P. aeruginosa ATCC 10145; details: ATCC 10145
[7] = system: P. aeruginosa ATCC 15442; assay: HMARQ biocidal kill activity; format: cell-based; details: P. aeruginosa ATCC 15442 (gram−)
Procedure, shortened: (§1)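 Values are biocide ppm (μg/mL) needed for 3.5 log reduction relative to untreated controls after 15 min or 24 h exposure. Organisms were added to biocide-containing sample matrix (200–300 μL, mixed by vortex), then enumerated by most-probable-number 1:10 dilution series in TSB/resazurin.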

[8] = system: Staph. aureus ATCC 6538; assay: HMARQ biocidal kill activity; format: cell-based; details: Staph. aureus ATCC 6538 (gram+)
Procedure, shortened: as §1

[9] = system: C. albicans 10231; format: cell-based; details: 10231
Procedure, shortened: (§2)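 Broth microdilution per NCCLS, adapted for fungi with Sabouraud Dextrose Broth; KFAK-repeat peptide multimers in two-fold dilutions from 1,000 to 1 μg/ml. Growth by OD620 after overnight incubation; IC50 by sigmoidal fit, in duplicate, repeated at least twice.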

[10] = system: Cr. Neoformans 32045; format: cell-based
Procedure, shortened: as §2

[11] = S. aureus (methicillin resistant) 33591, gram+

Sequence | HC50 at 24 h [1] | % kill at 250 μg/ml [2] | % kill at 500 μg/ml [3] | TX50 [3] | IC50 ([4]; ATCC 33591) | MIC ([4]; ATCC 33591) | IC50 [5] | MIC [5] | IC50 [6] | MIC [6] | ppm needed for 3.5 log kill at 15 min [7] | ppm needed for 3.5 log kill at 24 hr [7] | ppm needed for 3.5 log kill at 15 min [8] | ppm needed for 3.5 log kill at 24 hr [8] | IC50 [9] | MIC [9] | IC50 [10] | MIC [10] | other results
KFKKFKKFKKFKKFKKFKKFKKFKKFK [KFK (9), KFK KFK KFK KFK KFK KFK KFK KFK KFK] | > 500 µg/mL | −6% | 80.7% | >500 µg/mL | 92 µg/mL | 125 to 250 µg/mL | 14 µg/mL | 16 to 32 µg/mL | 68 µg/mL | 125 µg/mL | >500 ppm | 63 ppm | >500 ppm | 500 ppm | 194 µg/mL | 250 to 500 µg/mL | 39 µg/mL | 62 to 125 µg/mL | 
LKKLLKKLLKKLLKKLLKKLLKKL [LKKL (6), LKKL LKKL LKKL LKKL LKKL LKKL] | 11 µg/mL | 100% | −1.3% | 26 µg/mL | 98 µg/mL | >250 µg/mL | 31 µg/mL | 62 to 125 µg/mL | 58 µg/mL | 65 µg/mL | >500 ppm | 8 ppm | 4 ppm | 125 ppm | 213 µg/mL | 250 to 500 µg/mL | 93 µg/mL | >125 µg/mL | 
LKKLLKKLLKKLLKKLLKKLLKKLLKKLLKKL [LKKL (8), LKKL LKKL LKKL LKKL LKKL LKKL LKKL LKKL] | 8 µg/mL | 100% | 0.1% | 23 µg/mL | 80 µg/mL | >250 µg/mL | 37 µg/mL | 62 to 125 µg/mL | 61 µg/mL | 125 µg/mL | 4 ppm | 8 ppm | >500 ppm | 125 ppm | 179 µg/mL | 250 to 500 µg/mL | 56 µg/mL | 62 to 125 µg/mL | 
LKLKLKLKLKLKLKLKLK [LK (9), LK LK LK LK LK LK LK LK LK] | > 500 µg/mL | 21% | 46.0% | 137 µg/mL | 50 µg/mL | 250 to 500 µg/mL | 35 µg/mL | 62 to 125 µg/mL | 74 µg/mL | 80 µg/mL | 8 ppm | 8 ppm | 16 ppm | 4 ppm | 216 µg/mL | 250 to 500 µg/mL | 4.9 µg/mL | 32 to 62 µg/mL | 
LKLKLKLKLKLKLKLKLKLK [LK (10), LK LK LK LK LK LK LK LK LK LK] | > 500 µg/mL | 27% | 65.0% | >500 µg/mL | 29 µg/mL | 125 to 250 µg/mL | 127 µg/mL | 150 to 250 µg/mL | 47 µg/mL | 125 µg/mL | 8 ppm |  | 16 or less ppm | 16 or less ppm | 187 µg/mL | 250 to 500 µg/mL | 3.0 µg/mL | 62 to 125 µg/mL | 
LRLRLRLRLRLRLR [LR (7), LR LR LR LR LR LR LR] | > 500 µg/mL |  | 86.5% | >500 µg/mL |  |  | 15 µg/mL | 31 to 62 µg/mL | 109 µg/mL | 125 µg/mL | >63 ppm | 4 ppm | 31 ppm | 7.8 ppm | 182 µg/mL | 250 to 500 µg/mL | 1.8 µg/mL | 4 to 8 µg/mL | % kill at 250 μg/ml ([2]; RBCs, 250 μg/ml): 15%; IC50 [4, 11]: 90 µg/mL; MIC [4, 11]: 250 to 500 µg/mL
LRLRLRLRLRLRLRLRLRLRLR [LR (11), LR LR LR LR LR LR LR LR LR LR LR] | 450 µg/mL | 41% | 66.6% | >500 µg/mL | 39 µg/mL | 125 to 250 µg/mL | 96 µg/mL | 125 to 250 µg/mL | >250 µg/mL | >250 µg/mL |  | 8 ppm | 16 ppm | 8 ppm | >500 µg/mL | >500 µg/mL | 3.3 µg/mL | 62 to 125 µg/mL | 
RFARRFARRFARRFARRFARRFARRFAR [RFAR (7), RFAR RFAR RFAR RFAR RFAR RFAR RFAR] | 20 µg/mL | 100% | 12.4% | 106 µg/mL | 31 µg/mL | 125 to 250 µg/mL | 8 µg/mL | 32 to 62 µg/mL | 20 µg/mL | 62 µg/mL | 63 ppm | 125 ppm | >500 ppm | 4 ppm | 172 µg/mL | 250 to 500 µg/mL | 45 µg/mL | 62 to 125 µg/mL | 
RFARRFARRFARRFARRFARRFARRFARRFAR [RFAR (8), RFAR RFAR RFAR RFAR RFAR RFAR RFAR RFAR] | 17 µg/mL | 100% | 9.5% | 71 µg/mL | 20 µg/mL | 125 to 250 µg/mL | 12 µg/mL | 32 to 62 µg/mL | 30 µg/mL | 62 µg/mL | >500 ppm | 16 ppm | >500 ppm | 125 ppm | 144 µg/mL | 250 to 500 µg/mL | 32 µg/mL | 62 to 125 µg/mL | 
